Reference: patent publication US10568963B2, “Multifunctional nanoplatforms for fluorescence imaging and photodynamic therapy developed by post-loading photosensitizer and fluorophore to polyacrylamide nanoparticles” (HEALTH RESEARCH, INC., priority 2009, dated 2020)

Key:
Colon 26 tumors = assay: In-vivo photodynamic therapy (PDT), tumor regrowth monitored 60 days; details: BALB/c mice bearing Colon 26 tumors, PS dose 0.47 moles/kg, light 665 nm, 135 J/cm^2, 75 mW/cm^2, 24 hours post-injection
Description: Eight- to twelve-week-old BALB/cAnNCr mice (Jackson Laboratory, Bar Harbor, Me.) were inoculated subcutaneously (s.c.) with 1×10^6 Colon 26 cells. When tumors reached 40-70 mm^3, mice were injected i.v. (tail vein) with PS 1 (formulated in 1% Tween 80/D5W) or PAA nanoconstructs/formulations 6-10 suspended in water and further diluted in D5W. 24 hours post i.v. injection (dose of PS 1: […]), mice (BALB/c mice bearing Colon 26 tumors, 10 mice/group) were restrained in plexiglass holders and tumors were irradiated at 665 nm with a fluence and fluence rate of 135 J/cm^2 at 75 mW/cm^2, respectively, using a pumped argon-dye laser. The growth of tumors was measured two to three times per week and the mice were monitored for a total of 60 days post PDT treatment. When the tumor regrowth was >400 mm^3, the mice were euthanized according to the guidelines of the institute approved animal protocol.

[1] = in vivo; cited from earlier work
[2] = in vivo; cited from earlier work; remark: listed apart in the source
Water solubility = type: physicochemical

solubility in water (Water solubility) | Molecule | PDT response (no tumor regrowth) / tumor cure (Colon 26 tumors) [%] | PDT response (no tumor regrowth) / tumor cure (Colon 26 tumors; listed as HPPH 1) [%] | plasma half lives [1] [h] | skin phototoxicity [2]
 | CCCCCCOC(C)c1c(C)c2cc3nc(c4c5[nH]c(cc6nc(cc1[nH]2)C(C)=C6CC)c(C)c5C(=O)C4)[C@@H](CCC(=O)O)[C@@H]3C (stereo partly drawn) [HPPH, 3-(1′-hexyloxyethyl)pyropheophorbide-a] | 40 | 40 | ~25 | low skin phototoxicity
water insoluble | CC1(C)C(=CC=C2CCCC(C=CC3=[N+](CCCCS(=O)(=O)[O-])c4ccc5ccccc5c4C3(C)C)=C2Cl)N(CCCCS(=O)(=O)[O-])c2ccc3ccccc3c21.[Na+] [cyanine dye 2, IR820] |  |  |  | 
 | iodobenzyl pheophorbide-a |  |  | ~25 | 
